Experimental data: US10966949B2, “Dietary supplementation to achieve oxy-redox homeostasis and epigenetic stability” (PARTHENOGEN SAGL, priority 2015, dated 2021)

Columns and labels:
[1] = tested on: Agouti gene Avy; assay: Agouti-yellow coat colour of offspring of supplemented VY dams (DNA methylation marking); format: in vivo, mouse; conditions: dams' diet fortified during gestation, human-equivalent dose, n=10; standard diet 66%
Source text: Mice embryos carrying the transgenic Agouti gene Avy will develop during gestation an Agouti-yellow color hair instead of the normal brown color proportionally to the lack of cytosine methylation at the relevant gene promoter. Mothers with a good DNA methylation function during early embryogenesis will generate offspring exerting less of the yellow color, thus the proportion of yellow color in the offspring can be used as a measure of efficiency of DNA methylation marking. Newborn mice are classified as Y0 to Y5 according to the amount of yellow phenotype, from Y0 for those without yellow hair up to Y5 in those fully colored in yellow. Dams of the inbred agouti mouse strain VY underwent diversified feeding during their gestation: their standard diet (n=10), or; their standard diet fortified with folic acid in amounts equivalent to a human dose of 400 μg daily (n=10), or; their standard diet fortified with the substances in amounts equivalent to a human dose of 1 tablet per day of the formulation of EXAMPLE 1 (n=10). The offspring was classified Y0 to Y5 according to the amount of yellow colour. In the standard diet group the rate of offspring abundant Agouti yellow color (Y3 to Y5) was 66%, which decreased to 45% in the offspring from folic acid supplementation and to 31% in the offspring supplemented by the composition according to the invention.

[2] = tested on: patients with type 2 diabetes mellitus; assay: Adjuvant treatment to metformin in newly diagnosed type 2 diabetes mellitus; format: in vivo, human
Source text: Thirty male patients newly diagnosed as affected by type 2 diabetes mellitus and starting a treatment with metformin, 1-2 gr daily, where randomly assigned to a 3-month adjuvant treatment with the composition formulated according to EXAMPLE 1, 1 tablet per day, or no treatment.

[3] = tested on: plasma total antioxidant capacity (TAC); assay: Plasma total antioxidant capacity (TAC) in healthy young males, cross-over; format: in vivo, human
Protocol: Ten young male subjects aged 18-25, following a healthy diet and virtually free from diseases assumed the composition formulated according to EXAMPLE 1, 1 tablet per day, for 1 week or 1000 mg daily of vitamin C by the oral route for 1 week according to a cross-over design with a 1 month wash-out interval between the treatments. The plasma total antioxidant capacity (TAC) was measured by means of a colorimetric assay kit before and after each of the treatment periods in all subjects. The average TAC values expressed as μmol trolox equivalents increased from 572±33 to 646±20 (increase=13%) following one week supplementation with the powerful direct antioxidant vitamin C whereas it remained stable (from 570±31 to 578±26, increase=1%) following one week supplementation with the composition according to the invention.

[4] = tested on: plasma total antioxidant capacity (TAC); assay: Plasma total antioxidant capacity (TAC) in regular smokers, cross-over; format: in vivo, human; conditions: ten male smokers
Protocol: Ten male subjects regularly smoking 15 cigarettes per day or more assumed the composition formulated according to EXAMPLE 1, 1 tablet per day during 1 week or 1000 mg daily of vitamin C by the oral route for 1 week according to a cross-over design with a 1 month wash-out interval between the treatments. The plasma total antioxidant capacity (TAC) was measured by means of a colorimetric assay kit before and after each of the treatment periods in all subjects. The average TAC values expressed as μmol trolox equivalents increased from 472±36 to 522±32 (increase=11%) following one week supplementation with the powerful direct antioxidant vitamin C and from 468±31 to 565±36 (increase=21%) following one week supplementation with the composition according to the invention. Thus, the TAC increase provided by the aforementioned composition was of the same magnitude, if not higher, than that induced by full doses of a potent direct antioxidant.

[5] = all patients on metformin 1-2 gr daily, 3 months

Nc1nc2ncc(CNc3ccc(C(=O)N[C@@H](CCC(=O)O)C(=O)O)cc3)nc2c(=O)[nH]1 [folic acid]
rate of offspring with abundant Agouti yellow color (Y3 to Y5) [1]: 45%

CN(C)C(=N)N=C(N)N [metformin]
plasma homocysteine at the end of treatment [2, 5]: 14.4 ± 2.1 µmol/L | serum HbA1C percentage at end [2, 5]: 9.2% | serum HbA1C percentage at baseline ([2]; all patients on metformin 1-2 gr daily, baseline): 10.4% | plasma homocysteine at baseline ([2]; male type 2 diabetes patients starting metformin 1-2 gr daily, baseline): 12.04 ± 1.6 µmol/L

O=C1O[C@H]([C@@H](O)CO)C(O)=C1O [vitamin C]
average plasma TAC after treatment ([3]; ten healthy young males aged 18-25, after one week supplementation): 646±20 μmol trolox equivalents | average plasma TAC before treatment ([3]; ten healthy young males aged 18-25, before one week supplementation): 572±33 μmol trolox equivalents | TAC increase ([3]; ten healthy young males, one week supplementation): 13% | average plasma TAC before treatment ([4]; 15 cigarettes per day or more, before one week supplementation): 472±36 μmol trolox equivalents | average plasma TAC after treatment ([4]; after one week supplementation): 522±32 μmol trolox equivalents | TAC increase ([4]; one week supplementation): 11%
